The test deals with cGMP-specific 3',5'-cyclic phosphodiesterase (Homo sapiens, UniProt O76074). The experiment in a line: Inhibition Assay: To determine their in vitro action on human PDE 5, the test substances are dissolved in 100% DMSO and serially diluted. Typically, dilution series (1:3) from 200 uM to 0.091 uM are prepared (resulting final concentrations in the test: 4 uM to 0.0018 uM). In each case 2 ul of the diluted substance solutions are placed into the wells of microtitre plates (Isoplate-96/200W; Perkin Elmer). Subsequently, 50 ul of a dilution of the above-described PDE 5 preparation are added. The dilution of the PDE 5 preparation is chosen such that during the later incubation less than 70% of the substrate are converted (typical dilution: 1:100; dilution buffer: 50 mM Tris/hydrochloric acid pH 7.5, 8.3 mM magnesium chloride, 1.7 mM EDTA, 0.2% BSA). The substrate, [8-3H] cyclic guanosine-3',5'-monophosphate (1 uCi/ul; Perkin Elmer) is diluted 1:2000 with assay buffer (50 mM tris/hydrochloric acid pH 7.5, 8.3 mM magnesium chloride, 1.7 mM EDTA) to a concentration of 0.0005 uCi/ul. By addition of 50 ul (0.025 uCi) of the diluted substrate, the enzyme reaction is finally started. The test mixtures are incubated at room temperature for 60 min and the reaction is stopped by adding 25 ul of a suspension of 18 mg/ml yttrium scintillation proximity beads in water (phosphodiesterase beads for SPA assays, RPNQ 0150, Perkin Elmer). […]. In general terms: In a scintillation proximity assay essentially only radioactivity close to the scintillant gives light.

Each structure is given as a SMILES string.

For `CC1(C)C(=O)Nc2nc(-c3nn(Cc4ccccc4F)c4ncc(F)cc34)nc(CNC(=O)C3CC3)c21`, the IC50 (commonly the concentration at which inhibition is half-maximal) is 570 nM.
